For this assay, the system named is SW480. Description: drug sensitivity score (DSS, integrated dose-response area); higher = more sensitive (stronger viability reduction); extreme values may be limits of the assay. In outline:
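After 7 days of induction with 0.1 µg/mL doxycycline, SW480 cells stably harbouring inducible control or SND1-targeting shRNA were plated at 1000 cells per well in 384-well plates preloaded with 525 small-molecule inhibitors at five concentrations. CellTiter-Glo viability readings were taken 72 h later. Drug sensitivity scores come from integrating the area under a fitted non-linear dose–response model.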

Where [1] appears, read: shRNA: SND1 shRNA1 (SND1 silenced).
The mark [2] stands for this setting: shRNA: SND1 shRNA2 (SND1 silenced).
[3] abbreviates: shRNA: control shRNA (non-targeting).

As for `NC(=O)c1cccc2cn(-c3ccc([C@@H]4CCCNC4)cc3)nc12` [Niraparib], the drug sensitivity score under setting [1] worked out at 3.3 DSS, the drug sensitivity score under setting [2] came to 1.1 DSS and the drug sensitivity score under setting [3] was found to be 4.9 DSS.
For `CCC/C=C/C=C/C(=O)O[C@H]1/C(=C/C(=O)OC)C[C@H]2C[C@H]([C@@H](C)O)OC(=O)C[C@H](O)C[C@@H]3C[C@H](OC(C)=O)C(C)(C)[C@](O)(C[C@@H]4C/C(=C/C(=O)OC)C[C@H](/C=C/C(C)(C)[C@]1(O)O2)O4)O3` [Bryostatin 1] the same measures were 1.7 DSS, 0.6 DSS and 0 DSS.
With `Cn1ncc(Cl)c1-c1cc(C(=O)N[C@H](CN)Cc2ccc(F)c(F)c2)oc1Cl` [Uprosertib], the drug sensitivity score runs as follows: under setting [1], 0 DSS; under setting [2], 0.3 DSS; under setting [3], 0.2 DSS.
Consider `CO[C@H]1C[C@@H]2CC[C@@H](C)[C@@](O)(O2)C(=O)C(=O)N2CCCC[C@H]2C(=O)O[C@H]([C@H](C)C[C@@H]2CC[C@@H](O)[C@H](OC)C2)CC(=O)[C@H](C)/C=C(\C)[C@@H](O)[C@@H](OC)C(=O)[C@H](C)C[C@H](C)/C=C/C=C/C=C/1C` [Sirolimus], for which the drug sensitivity score came out at 7.8 DSS under setting [1] and 6.9 DSS under setting [3].
In the case of `CCn1cc(-c2ccnc3[nH]c(-c4cccc(CN(C)C)c4)cc23)c(-c2ccc(NC(=O)N(C)C)cc2)n1`, the drug sensitivity score reads like this: under setting [1], 7.8 DSS; under setting [2], 9.5 DSS; under setting [3], 10.2 DSS.
As to `O=C(NC[C@H](O)CO)c1ccncc1Nc1ccc(I)cc1F` [Pimasertib], the drug sensitivity score reads like this: under setting [1], 26.3 DSS; under setting [2], 16.5 DSS; under setting [3], 7.4 DSS.
For `CCN(CC)Cc1ccc2cc(COC(=O)Nc3ccc(C(=O)NO)cc3)ccc2c1` [Givinostat] the same measures were 6.6 DSS, 7.3 DSS and 6.7 DSS.
`CN(C)C(=O)c1cc2cnc(Nc3ccc(N4CCNCC4)cn3)nc2n1C1CCCC1` [Ribociclib]: the drug sensitivity score is 3.8 DSS under setting [1] and 4.9 DSS under setting [3].
As for `CC(=O)Nc1ccc(C(=O)Nc2ccccc2N)cc1` [Tacedinaline], the drug sensitivity score came to 0 DSS under setting [1], 4.5 DSS under setting [2] and 3.8 DSS under setting [3].
As to `Cn1c(CCCC(=O)O)nc2cc(N(CCCl)CCCl)ccc21` [Bendamustine], the drug sensitivity score under setting [1] turned out to be 1.7 DSS, the drug sensitivity score under setting [2] stood at 0.5 DSS and the drug sensitivity score under setting [3] came out at 3.5 DSS.
For the compound `CCN(CC)CCCC(C)Nc1c2ccc(Cl)cc2nc2ccc(OC)cc12` (stereo not drawn) [Mepacrine], the drug sensitivity score reads like this: under setting [1], 21.5 DSS; under setting [3], 21.5 DSS.
`C=CC[C@@H]1/C=C(\C)C[C@H](C)C[C@H](OC)[C@H]2O[C@@](O)(C(=O)C(=O)N3CCCC[C@H]3C(=O)O[C@H](/C(C)=C/[C@@H]3CC[C@@H](O)[C@H](OC)C3)[C@H](C)[C@@H](O)CC1=O)[C@H](C)C[C@@H]2OC` [Tacrolimus]: the drug sensitivity score amounted to 0 DSS under setting [1] and 0 DSS under setting [3].
For `C[C@@H]1C[C@H]2O[C@@H]2/C=C\C=C\C(=O)Cc2c(Cl)c(O)cc(O)c2C(=O)O1` [Radicicol], the drug sensitivity score under setting [1] was found to be 13.4 DSS, the drug sensitivity score under setting [2] was found to be 12.1 DSS and the drug sensitivity score under setting [3] amounted to 12.3 DSS.
With `CN(C)C/C=C/C(=O)Nc1cc2c(Nc3ccc(F)c(Cl)c3)ncnc2cc1O[C@H]1CCOC1` [Afatinib], the drug sensitivity score turned out to be 2.1 DSS under setting [1], 1.8 DSS under setting [2] and 1.2 DSS under setting [3].
For `Nc1nccc(-c2c(-c3ccc(F)cc3)ncn2C2CCCCC2)n1`, the drug sensitivity score is, setting by setting: under setting [1], 0.8 DSS; under setting [2], 0.4 DSS; under setting [3], 0.8 DSS.
For the compound `O=C(O)CSc1cc(NS(=O)(=O)c2ccc(Br)cc2)c2ccccc2c1O` [UMI-77], the drug sensitivity score is, setting by setting: under setting [1], 14.5 DSS; under setting [2], 13.4 DSS; under setting [3], 15.8 DSS.
`Nc1nc(Nc2ccc3c(c2)CC[C@@H](N2CCCC2)CC3)nn1-c1cc2c(nn1)-c1ccccc1CCC2` [BGB324]: the drug sensitivity score under setting [1] is 9 DSS, the drug sensitivity score under setting [2] came to 5.9 DSS and the drug sensitivity score under setting [3] stood at 9.6 DSS.
With `C[C@]1(O)C[C@@H](c2nc(-c3ccc4ccc(-c5ccccc5)nc4c3)c3c(N)nccn32)C1` [Linsitinib], the drug sensitivity score under setting [1] was 0 DSS, the drug sensitivity score under setting [2] was 0.1 DSS and the drug sensitivity score under setting [3] was 0.2 DSS.
As to `CC(C)[C@@H](CS(=O)(=O)C(C)C)N1C(=O)[C@@](C)(CC(=O)O)C[C@H](c2cccc(Cl)c2)[C@H]1c1ccc(Cl)cc1` [AMG-232], the drug sensitivity score under setting [1] stood at 0 DSS, the drug sensitivity score under setting [2] stood at 0 DSS and the drug sensitivity score under setting [3] stood at 0 DSS.
In the case of `CN1CCN(c2ccc3nc(-c4c(N)c5c(F)cccc5[nH]c4=O)[nH]c3c2)CC1` [Dovitinib], the drug sensitivity score under setting [1] amounted to 0.1 DSS, the drug sensitivity score under setting [2] was 0 DSS and the drug sensitivity score under setting [3] amounted to 0 DSS.
With `COc1cccc2c1C(=O)c1c(O)c3c(c(O)c1C2=O)C[C@@](O)(C(C)=O)C[C@@H]3O[C@H]1C[C@H](N)[C@H](O)[C@H](C)O1` [Daunorubicin], the drug sensitivity score is, setting by setting: under setting [1], 9.5 DSS; under setting [2], 7.3 DSS; under setting [3], 10 DSS.
Turning to `CC(C)[C@H](C(=O)Nc1ccc(C(=O)NO)cc1)c1ccccc1` [AR-42], the drug sensitivity score reads like this: under setting [1], 19.6 DSS; under setting [2], 12.9 DSS; under setting [3], 10.9 DSS.
For `N#Cc1c(Oc2ccc(F)c(NC(=O)Cc3cccc(C(F)(F)F)c3)c2)ccc2nc(NC(=O)C3CC3)sc12` [TAK-632], the drug sensitivity score runs as follows: under setting [1], 5.9 DSS; under setting [2], 0.5 DSS; under setting [3], 3.1 DSS.
In the case of `COc1cc2ncnc(Nc3ccc(F)c(Cl)c3)c2cc1OCCCN1CCOCC1` [Gefitinib], the drug sensitivity score is 3.6 DSS under setting [1], 6.6 DSS under setting [2] and 3.7 DSS under setting [3].
For `O=C(/C=C/c1cccc(S(=O)(=O)Nc2ccccc2)c1)NO` [Belinostat] the same measures were 16.4 DSS, 13.8 DSS and 12.7 DSS.
Regarding `CCn1c(=O)c(-c2ccc(Cl)cc2Cl)cc2cnc(Nc3ccc(N4CCNCC4)c(F)c3)nc21` [FRAX486], the drug sensitivity score runs as follows: under setting [1], 5 DSS; under setting [2], 4.8 DSS; under setting [3], 8.5 DSS.
`COc1cc(Nc2ncc(F)c(Nc3ccc4c(n3)N(COP(=O)(O)O)C(=O)C(C)(C)O4)n2)cc(OC)c1OC` [Fostamatinib]: the drug sensitivity score came out at 3.4 DSS under setting [1] and 2.6 DSS under setting [3].
On to `CNC(=O)c1ccc(N2C(=S)N(c3ccc(C#N)c(C(F)(F)F)c3)C(=O)C2(C)C)cc1F` [Enzalutamide], for which the drug sensitivity score is, setting by setting: under setting [1], 0 DSS; under setting [2], 1.3 DSS; under setting [3], 0 DSS.
Regarding `C[C@H]1C[C@@H]2[C@H]([C@@H](O)C[C@@]3(C)[C@H]2CC[C@]3(O)C(=O)CO)[C@@]2(C)C=CC(=O)C=C12` [Methylprednisolone], the drug sensitivity score reads like this: under setting [1], 0 DSS; under setting [2], 1.4 DSS; under setting [3], 0 DSS.
For `O=C(O)CC[C@H]1CC[C@@](c2cc(F)ccc2F)(S(=O)(=O)c2ccc(Cl)cc2)CC1` [MK-0752], the drug sensitivity score is, setting by setting: under setting [1], 0.7 DSS; under setting [2], 0 DSS; under setting [3], 0 DSS.
`CCC(C)n1ncn(-c2ccc(N3CCN(c4ccc(OCC5COC(Cn6cncn6)(c6ccc(Cl)cc6Cl)O5)cc4)CC3)cc2)c1=O` (stereo not drawn) [Itraconazole]: the drug sensitivity score is, setting by setting: under setting [1], 4.2 DSS; under setting [2], 0.2 DSS; under setting [3], 1.5 DSS.

For the origin of these results see the supplement of paper PMC9265050, “Inhibition of RNA Binding in SND1 Increases the Levels of miR-1-3p and Sensitizes Cancer Cells to Navitoclax” (Cancers, 2022).
